Where two headings read alike, the source gives them in different places.
How the values were obtained:
[1] = system: Caco 2 cells; assay: proliferation / combination assay in colon cancer cells; assay type: cell-based; details: Homo sapiens
[2] = system: MDA-MB-435 (435); assay: clonogenic assay (LD50), ritonavir sensitivity; assay type: cell-based, human; details: 435 cells
Text: (§1) MCF7 and MDA-MB-435 (435) had relatively low m-calpain levels, whereas MDA-MB-231 (231), MDA-MB-436 (436) and Caco 2 had relatively high m-calpain levels.
(§2) We note that the IC50 is derived from MTT assays, while the LD50 is derived from clonogenic assays.

[3] = system: MDA-MB-436 (436); assay: clonogenic assay (LD50), ritonavir sensitivity; assay type: cell-based, human; details: 436 cells
Text: as §1, §2

[4] = system: MCF7; assay: clonogenic assay (LD50), ritonavir sensitivity; assay type: cell-based, human
Text: as §1, §2

[5] = system: MDA-MB-231 (231); assay: clonogenic assay (LD50), ritonavir sensitivity; assay type: cell-based, human; details: 231 cells
Text: as §1, §2

[6] = system: H460; assay: MTT assay, NSCLC cell line; assay type: cell-based; details: Homo sapiens
[7] = system: MDA-436LXSN (vector control line); assay: MTT assay, breast cancer line; assay type: cell-based; details: Homo sapiens, read-out: Ritonavir IC50
[8] = system: MDA-MB-231 human breast cancer tumors; assay: MDA-MB-231 xenograft model; assay type: in vivo, nude mice; details: 40 mg/kg
Procedure: (Tumor size was measured by the method volume in cubic mm=length×[width]squared/2.) The tumors in this preliminary experiment took 7 weeks to grow and represent established tumors. […] FIG. 6B confirms the finding of 6A, showing that all three of the control tumors progressed. […] FIG. 6C depicts weight of the tumor when measured at days 1, 6, 9, and 13. FIG. 6D depicts weight of the animal when measured at days 1, 3, 6, 10, and 13.

[9] = system: Caco 2 C9 control (pRC/CMV vector); assay: MTT assay, 96 well plate, 48 h; assay type: cell-based; details: Caco-2, 48 h, read-out: Ritonavir IC50
[10] = system: breast cancer lines; assay: propidium iodide flow cytometry; assay type: cell-based, human; details: at the IC50 concentration of ritonavir
[11] = system: MDA-MD-435 cells; assay: proliferation assay, MTT, 24 hours; assay type: cell-based; details: Homo sapiens, 24 hours exposure, averaging 2 experiments
Procedure: Proliferation assays were done by plating cells in a 96 well plate at […] for the 231 cells and 5×10^3 cells per well for the 435 cells. The cells were allowed to attach and grow for 24 hours. […] The cells were allowed to grow for 24 hours and the number of viable cells was measured by MTT assay.

[12] = ritonavir serum levels in mice
[13] = system: EGF receptor; assay: EGF receptor expression in Caco 2 cells, Western blot; assay type: cell-based; details: 20 μM, 24 hours, confluent Caco 2
Procedure: The medium was not changed. After 24 hours, the cells were harvested by Triton X-100 lysis, and Western blot analysis was performed on the supernatant, which contains solubilized EGF receptor.

[14] = system: MDA-MB-435 human breast cancer xenografts; assay: nude mouse mammary fat pad xenograft model; assay type: in vivo, nude mice; details: 19 days
Procedure: An inoculum of 5×10^5 MDA-MB-435 cells in 100 μl was injected into the mammary fat pad of each female animal. […] The tumor growth rate was reduced by 16% in the mice treated at 20 mg/kg, compared to the mice treated with vehicle.

[15] = system: Surface her2; assay: surface her2 in breast cancer lines under ritonavir; assay type: cell-based, human; details: SKBR-3, ritonavir treatment
[16] = system: Caco 2 0.5-11 (calpastatin over-expressing); assay: MTT assay, 96 well plate, 48 h; assay type: cell-based; details: Homo sapiens, Caco-2, read-out: Ritonavir IC50, 0.5-11 line (calpain activity reduction of 80%)
[17] = system: HUVEC; assay: HUVEC tubule formation assay; assay type: cell-based; details: Homo sapiens, 72 h, fibrin gel, VEGF and bFGF, counted at three days, read-out: IC50, formation of new endothelial cell tubules
Procedure: Endothelial cell tubule formation in a fibrin clot is an analog of angiogenesis and was used to assay angiogenesis inhibitors (Brown et al., Lab. Investig. 75:539, 1996). HUVEC were coated on Cytodex™ microcarrier beads (Pharmacia) at a density of 30 HUVEC per bead, in a siliconized dish containing HUVEC complete medium, for 24 hours. […] Tubules were counted at three days.

[18] = system: Caco 2 2-3 (calpastatin over-expressing); assay: MTT assay, 96 well plate, 48 h; assay type: cell-based; details: Homo sapiens, Caco-2, read-out: Ritonavir IC50, 2-3 line
[19] = system: 436 with expression of IκB α super-repressor of NF-κB; assay: clonogenic assay (LD50), ritonavir sensitivity; assay type: cell-based, human; details: 436 expressing IκB α super-repressor of NF-κB
Text: This finding is consistent with the implication of signaling pathways in the resistance of breast cancer cell lines to chemotherapy (Patel et al., Oncogene 19:4159-4169).
as §2

[20] = patients, Gatti et al., cited from earlier work
[21] = system: breast cancer lines; assay: Annexin V/propidium iodide flow cytometry; assay type: cell-based, human; details: at the ritonavir IC50 and IC80
[22] = system: HUVEC; assay: HUVEC cell spreading assay; assay type: cell-based, human; details: 40 μM
Procedure: Cells were fixed in 3.7% formaldehyde in PBS, blocked and stained with Oregon-green phalloidin 514 (Molecular Probes), and then digitally photographed using a Zeiss inverted fluorescence microscope equipped with a CCD camera. Cell areas were measured on the digital images using the Spot program (Diagnostic Imaging).

Compound: CC(C)c1nc(CN(C)C(=O)N[C@H](C(=O)N[C@@H](Cc2ccccc2)C[C@H](O)[C@H](Cc2ccccc2)NC(=O)OCc2cncs2)C(C)C)cs1 [Ritonavir, ritonavir]
- IC50 ([1]; Caco-2, 48 h, read-out: IC50 (50% inhibition of proliferation)): 30 µM
- IC50 ([1]; Caco 2, single agent, read-out: IC50): 45 µM
- LD50 [2]: 16 µM
- LD50 [3]: 55 µM
- LD50 [4]: 25 µM
- LD50 [5]: 60 μm
- IC50 ([6]; NCI-H460): 47.5 µM
- IC80 ([6]; NCI-H460, single agent): 100 µM
- IC50 [7]: 42 µM
- growth rate of tumors ([8]; nude mice, FIG. 6C): decrease the growth rate of tumors
- weight of the animal ([8]; nude mice, FIG. 6D): without causing wasting of the mice
- tumor response ([8]; three established tumors, FIG. 6A): two tumors of three exhibited stable disease
- IC50 [9]: 30 µM
- cell cycle [10]: induces cell cycle arrest
- IC50 [11]: ~150 µM
- trough drug levels ([12]; Tween 80, ip injection): less than 0.1 μM
- peak ritonavir concentrations ([12]; oral gavage, Norvir liquid, 40 mg/kg body weight): less than 1 μM
- EGF receptor down regulated [13]: 20%
- tumor growth rate reduced, compared to vehicle ([14]; 10 mg/kg daily gavage, one outlier tumor removed): 49%
- tumor growth rate reduced, compared to vehicle ([14]; 20 mg/kg daily gavage, all tumors): 16%
- tumor growth rate reduced, compared to vehicle ([14]; 20 mg/kg daily gavage, outlier tumor removed): 55%
- Surface her2 Ritonavir [15]: 0.4
- IC50 [16]: 15 µM
- IC50 [17]: 16 µM
- IC50 [18]: 20 µM
- LD50 [19]: 40 µM
- peak plasma ritonavir concentrations ([20]; AIDS 13:2083-2089): 18.6 to 46 µM
- trough concentrations ([20]; AIDS 13:2083-2089): 10.4 to 17.5 µM
- Cmax ([20]; read-out: upper boundary of ritonavir Cmax plasma concentrations): ~45 µM
- apoptosis [21]: increased apoptosis
- reduction of cell area ([22]; 1 hour of spreading): 15%
- cell area ([22]; 1 hour spreading on fibronectin): 4100±160 μm^2
